What was measured:
Format in all cases: biochemical
FGFR3 = biological target: T1, FGFR3 (Homo sapiens, UniProt P22607); assay: FGFR Enzymatic Assay (FRET peptide phosphorylation), FGFR3; conditions: ATP 140 μM, 25° C. for 1 hr
T1 construct: purchased Millipore
Experimental: (§1) The inhibitor potency of the Example compounds was measured in an enzyme assay that measures peptide phosphorylation using FRET measurements to detect product formation. Inhibitors were serially diluted in DMSO and a volume of 0.5 μL was transferred to the wells of a 384-well plate. For FGFR3, a 10 μL volume of FGFR3 enzyme (Millipore) diluted in assay buffer (50 mM HEPES, 10 mM MgCl2, 1 mM EGTA, 0.01% Tween-20, 5 mM DTT, pH 7.5) was added to the plate and pre-incubated for 5-10 minutes. Appropriate controls (enzyme blank and enzyme with no inhibitor) were included on the plate. The assay was initiated by the addition of a 10 μL solution containing biotinylated EQEDEPEGDYFEWLE peptide substrate (SEQ ID NO: 1) and ATP (final concentrations of 500 nM and 140 μM respectively) in assay buffer to the wells. The plate was incubated at 25° C. for 1 hr. The reactions were ended with the addition of 10 μL/well of quench solution (50 mM Tris, 150 mM NaCl, 0.5 mg/mL BSA, pH˜7.8, 30 mM EDTA with Perkin Elmer Lance Detection Reagents at 3.75 nM Eu-antibody PY20 and 180 nM APC-Streptavidin). The plate was allowed to equilibrate for 1 hour before scanning the wells on a PheraStar plate reader (BMG Labtech). The enzymes were purchased from Millipore or Invitrogen.
(§2) GraphPad prism3 was used to analyze the data. The IC50 values were derived by fitting the data to the equation for a sigmoidal dose-response with a variable slope. Y=Bottom+(Top−Bottom)/(1+10^((Log IC50−X)*HillSlope)) where X is the logarithm of concentration and Y is the response.

FGFR2 = biological target: T2, FGFR2 (Homo sapiens, UniProt P21802); assay: FGFR Enzymatic Assay (FRET peptide phosphorylation), FGFR2; conditions: FGFR2 0.01 nM, ATP 100 μM
T2 construct: purchased Millipore or Invitrogen
Experimental: as §1
(§3) FGFR1 and FGFR2 were measured under equivalent conditions with the following changes in enzyme and ATP concentrations: FGFR1, 0.02 nM and 210 μM, respectively and FGFR2, 0.01 nM and 100 μM, respectively.
as §2

FGFR1 = biological target: T3, FGFR1 (Homo sapiens, UniProt P11362); assay: FGFR Enzymatic Assay (FRET peptide phosphorylation), FGFR1; conditions: FGFR1 0.02 nM, ATP 210 μM
T3 construct: purchased Millipore or Invitrogen
Experimental: as §1, §3, §2

T2 sequence (P21802 22-821): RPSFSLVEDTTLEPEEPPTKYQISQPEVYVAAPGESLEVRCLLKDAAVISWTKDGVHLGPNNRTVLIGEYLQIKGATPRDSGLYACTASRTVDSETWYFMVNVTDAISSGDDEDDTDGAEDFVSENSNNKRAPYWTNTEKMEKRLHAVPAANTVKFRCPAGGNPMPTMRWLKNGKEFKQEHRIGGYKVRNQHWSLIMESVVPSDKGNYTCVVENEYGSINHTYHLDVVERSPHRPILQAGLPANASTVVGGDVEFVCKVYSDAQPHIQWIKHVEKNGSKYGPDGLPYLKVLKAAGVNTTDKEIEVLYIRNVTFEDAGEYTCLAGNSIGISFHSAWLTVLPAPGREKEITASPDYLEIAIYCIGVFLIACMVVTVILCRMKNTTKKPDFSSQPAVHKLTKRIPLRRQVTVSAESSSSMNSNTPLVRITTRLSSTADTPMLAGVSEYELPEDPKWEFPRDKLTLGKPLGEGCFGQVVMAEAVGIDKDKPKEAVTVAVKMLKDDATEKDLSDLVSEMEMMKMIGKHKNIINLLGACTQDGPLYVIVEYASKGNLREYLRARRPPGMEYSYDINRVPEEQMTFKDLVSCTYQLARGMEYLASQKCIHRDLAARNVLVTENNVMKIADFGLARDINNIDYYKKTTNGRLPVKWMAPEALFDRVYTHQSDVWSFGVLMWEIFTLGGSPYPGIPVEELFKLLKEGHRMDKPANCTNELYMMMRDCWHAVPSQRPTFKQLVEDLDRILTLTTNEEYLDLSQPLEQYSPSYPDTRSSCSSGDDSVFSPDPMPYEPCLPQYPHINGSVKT
T3 sequence (P11362 22-822): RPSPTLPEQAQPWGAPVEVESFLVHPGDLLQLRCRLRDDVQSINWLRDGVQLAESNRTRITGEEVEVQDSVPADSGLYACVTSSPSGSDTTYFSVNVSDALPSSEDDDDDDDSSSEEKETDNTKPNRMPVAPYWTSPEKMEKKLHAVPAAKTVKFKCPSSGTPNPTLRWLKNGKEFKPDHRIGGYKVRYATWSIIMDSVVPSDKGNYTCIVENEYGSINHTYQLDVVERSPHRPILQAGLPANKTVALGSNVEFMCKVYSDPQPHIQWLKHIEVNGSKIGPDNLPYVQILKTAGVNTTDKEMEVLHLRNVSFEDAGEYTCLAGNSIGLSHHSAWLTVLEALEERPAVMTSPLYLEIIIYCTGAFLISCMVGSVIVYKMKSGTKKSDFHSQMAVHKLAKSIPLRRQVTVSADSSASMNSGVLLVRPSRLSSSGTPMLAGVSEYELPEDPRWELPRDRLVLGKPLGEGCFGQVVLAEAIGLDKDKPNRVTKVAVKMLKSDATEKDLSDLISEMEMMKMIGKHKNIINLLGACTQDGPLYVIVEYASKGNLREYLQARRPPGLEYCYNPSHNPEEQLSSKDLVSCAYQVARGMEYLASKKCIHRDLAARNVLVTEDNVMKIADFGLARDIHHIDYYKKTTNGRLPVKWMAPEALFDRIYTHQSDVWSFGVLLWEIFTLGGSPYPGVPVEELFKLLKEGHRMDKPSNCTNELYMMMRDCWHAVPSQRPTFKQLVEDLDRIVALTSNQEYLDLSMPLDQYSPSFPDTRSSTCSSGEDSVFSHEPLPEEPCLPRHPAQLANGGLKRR
T1 sequence (P22607 23-806): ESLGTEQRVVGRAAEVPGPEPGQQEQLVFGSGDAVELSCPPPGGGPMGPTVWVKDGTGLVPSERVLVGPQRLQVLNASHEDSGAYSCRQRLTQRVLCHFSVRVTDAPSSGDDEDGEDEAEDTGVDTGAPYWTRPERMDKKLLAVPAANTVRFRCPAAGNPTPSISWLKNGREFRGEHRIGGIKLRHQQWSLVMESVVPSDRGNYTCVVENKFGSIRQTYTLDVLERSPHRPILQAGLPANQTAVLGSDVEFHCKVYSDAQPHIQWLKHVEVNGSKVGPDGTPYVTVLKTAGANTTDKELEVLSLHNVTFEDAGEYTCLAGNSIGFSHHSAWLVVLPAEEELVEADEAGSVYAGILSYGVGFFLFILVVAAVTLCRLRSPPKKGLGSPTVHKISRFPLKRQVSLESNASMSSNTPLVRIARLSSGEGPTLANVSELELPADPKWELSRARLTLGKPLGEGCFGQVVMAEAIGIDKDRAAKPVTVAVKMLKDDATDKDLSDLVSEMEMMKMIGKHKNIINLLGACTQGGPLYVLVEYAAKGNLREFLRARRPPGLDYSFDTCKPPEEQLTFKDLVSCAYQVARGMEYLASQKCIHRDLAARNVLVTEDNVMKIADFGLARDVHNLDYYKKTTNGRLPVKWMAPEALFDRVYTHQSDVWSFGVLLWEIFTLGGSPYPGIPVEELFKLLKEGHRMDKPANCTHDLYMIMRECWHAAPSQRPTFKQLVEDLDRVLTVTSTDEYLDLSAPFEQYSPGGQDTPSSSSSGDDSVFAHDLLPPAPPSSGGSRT

SMILES | IC50 (FGFR3) [nM] | IC50 (FGFR2) [nM] | IC50 (FGFR1) [nM]
COc1cc(OC)c(F)c(-c2cc3[nH]nc(-c4ccc(N5CCN(C)CC5)cc4)c3cn2)c1F [Example 25, 6-(2,6-Difluoro-3,5-dimethoxyphenyl)-3-[4-(4-methylpiperazin-1-yl)phenyl]-1H-pyrazolo[4,3-c]pyridine] | < 100 | < 100 | < 100
COc1cc(OC)c(Cl)c(-c2ncc3c(-c4ccc5c(c4)CCC(C(=O)N(C)C)O5)n[nH]c3n2)c1Cl (stereo not drawn) [Example 2, 6-[6-(2,6-Dichloro-3,5-dimethoxyphenyl)-1H-pyrazolo[3,4-d]pyrimidin-3-yl]-N,N-dimethylchromane-2-carboxamide] | < 100 | < 100 | < 100
COc1cc(OC)c(Cl)c(-c2cc3[nH]nc(/C=C/c4cnn(C)c4)c3cn2)c1Cl [Example 49, 6-(2,6-Dichloro-3,5-dimethoxyphenyl)-3-[(E)-2-(1-methyl-1H-pyrazol-4-yl)vinyl]-1H-pyrazolo[4,3-c]pyridine] | < 100 | < 100 | < 100
COc1cc(OC)c(F)c(-c2ncc3c(-c4ccc5c(c4)CCC(C(=O)N(C)C)O5)n[nH]c3n2)c1F (stereo not drawn) [Example 6, 6-[6-(2,6-Difluoro-3,5-dimethoxyphenyl)-1H-pyrazolo[3,4-d]pyrimidin-3-yl]-N,N-dimethylchromane-2-carboxamide] | < 100 | < 100 | < 100
COc1cc(OC)c(F)c(-c2ncc3c(-c4ccc5c(c4)CN(C4CC4)C5=O)n[nH]c3n2)c1F [Example 21, 2-Cyclopropyl-5-[6-(2,6-difluoro-3,5-dimethoxyphenyl)-1H-pyrazolo[3,4-d]pyrimidin-3-yl]isoindolin-1-one] | < 100 | < 100 | < 100
COCCNC(=O)Cn1cc(-c2n[nH]c3cc(-c4c(Cl)c(OC)cc(OC)c4Cl)ncc23)cn1 [Example 46, 2-{4-[6-(2,6-Dichloro-3,5-dimethoxyphenyl)-1H-pyrazolo[4,3-c]pyridin-3-yl]-1H-pyrazol-1-yl}-N-(2-methoxyethyl)acetamide] | < 100 | < 100 | < 100
COc1cc(OC)c(F)c(-c2ncc3c(-c4ccc5c(c4)CC(C(=O)N(C)C)O5)n[nH]c3n2)c1F (single isomer, unassigned) [Example 5, 5-[6-(2,6-Difluoro-3,5-dimethoxyphenyl)-1H-pyrazolo[3,4-d]pyrimidin-3-yl]-N,N-dimethyl-2,3-dihydro-1-benzofuran-2-carboxamide] | < 100 | < 100 | < 100
COc1cc(OC)c(Cl)c(-c2cc3[nH]nc(-c4cnn(CC(=O)N(C)C)c4)c3cn2)c1Cl [Example 37, 2-{4-[6-(2,6-Dichloro-3,5-dimethoxyphenyl)-1H-pyrazolo[4,3-c]pyridin-3-yl]-1H-pyrazol-1-yl}-N,N-dimethylacetamide] | < 100 | < 100 | < 100
COc1cc(OC)c(F)c(-c2ncc3c(-c4ccc(N5CCN(C)CC5)cc4)n[nH]c3n2)c1F [Example 17, 6-(2,6-Difluoro-3,5-dimethoxyphenyl)-3-[4-(4-methylpiperazin-1-yl)phenyl]-1H-pyrazolo[3,4-d]pyrimidine] | < 100 | < 100 | < 100
CNC(=O)Cn1cc(-c2n[nH]c3cc(-c4c(Cl)c(OC)cc(OC)c4Cl)ncc23)cn1 [Example 36, 2-{4-[6-(2,6-Dichloro-3,5-dimethoxyphenyl)-1H-pyrazolo[4,3-c]pyridin-3-yl]-1H-pyrazol-1-yl}-N-methylacetamide] | < 100 | < 100 | < 100
COc1cc(OC)c(Cl)c(-c2cc3[nH]nc(-c4cnn(CC(=O)N5CC(O)C5)c4)c3cn2)c1Cl [Example 39, 1-({4-[6-(2,6-Dichloro-3,5-dimethoxyphenyl)-1H-pyrazolo[4,3-c]pyridin-3-yl]-1H-pyrazol-1-yl}acetyl)azetidin-3-ol] | < 100 | < 100 | < 100
COc1cc(OC)c(F)c(-c2ncc3c(-c4ccc(OCCN(C)C)cc4)n[nH]c3n2)c1F [Example 20, 2-{4-[6-(2,6-Difluoro-3,5-dimethoxyphenyl)-1H-pyrazolo[3,4-d]pyrimidin-3-yl]phenoxy}-N,N-dimethylethanamine] | < 100 | < 100 | < 100
COc1ccc(C#Cc2n[nH]c3nc(-c4c(F)c(OC)cc(OC)c4F)ncc23)cc1 [Example 14, 6-(2,6-Difluoro-3,5-dimethoxyphenyl)-3-[(4-methoxyphenyl)ethynyl]-1H-pyrazolo[3,4-d]pyrimidine] | < 100 | < 100 | < 100
COc1cc(OC)c(F)c(-c2ncc3c(-c4ccc5c(c4)CC(C(=O)N4CCN(C)CC4)O5)n[nH]c3n2)c1F (stereo not drawn) [Example 7, 6-(2,6-Difluoro-3,5-dimethoxyphenyl)-3-{2-[(4-methylpiperazin-1-yl)carbonyl]-2,3-dihydro-1-benzofuran-5-yl}-1H-pyrazolo[3,4-d]pyrimidine] | < 100 | < 100 | < 100

Next, values leading:

IC50 (FGFR3) [nM] | IC50 (FGFR2) [nM] | IC50 (FGFR1) [nM] | SMILES
< 100 | < 100 | < 100 | COc1cc(OC)c(Cl)c(-c2cc3[nH]nc(-c4cnn(C)c4)c3cn2)c1Cl [Example 90, 6-(2,6-Dichloro-3,5-dimethoxyphenyl)-3-(1-methyl-1H-pyrazol-4-yl)-1H-pyrazolo[4,3-c]pyridine]
< 100 | < 100 | < 100 | CCN1Cc2cc(-c3n[nH]c4nc(-c5c(Cl)c(OC)cc(OC)c5Cl)ncc34)cnc2C1=O [Example 77, 3-[6-(2,6-Dichloro-3,5-dimethoxyphenyl)-1H-pyrazolo[3,4-d]pyrimidin-3-yl]-6-ethyl-5,6-dihydro-7H-pyrrolo[3,4-b]pyridin-7-one]
< 100 | < 100 | < 100 | COc1cc(OC)c(F)c(-c2cc3[nH]nc(-c4ccc5c(c4)CN(C4CC4)C5=O)c3cn2)c1F [Example 54, 2-Cyclopropyl-5-[6-(2,6-difluoro-3,5-dimethoxyphenyl)-1H-pyrazolo[4,3-c]pyridin-3-yl]isoindolin-1-one]
< 100 | < 100 | < 100 | COc1cc(OC)c(F)c(-c2cc3[nH]nc(-c4ccc5c(c4)CN(C4CCOCC4)C5=O)c3cn2)c1F [Example 59, 5-[6-(2,6-Difluoro-3,5-dimethoxyphenyl)-1H-pyrazolo[4,3-c]pyridin-3-yl]-2-(tetrahydro-2H-pyran-4-yl)isoindolin-1-one]
< 100 | < 100 | < 100 | COc1cc(OC)c(F)c(-c2cc3[nH]nc(-c4ccc5c(c4)CN(CCN(C)C)C5=O)c3cn2)c1F [Example 67, 5-[6-(2,6-Difluoro-3,5-dimethoxyphenyl)-1H-pyrazolo[4,3-c]pyridin-3-yl]-2-[2-(dimethylamino)ethyl]isoindolin-1-one]
< 100 | < 100 | < 100 | COc1cc(OC)c(F)c(-c2cc3[nH]nc(-c4ccc5c(c4)CCNC5=O)c3cn2)c1F [Example 56, 6-[6-(2,6-Difluoro-3,5-dimethoxyphenyl)-1H-pyrazolo[4,3-c]pyridin-3-yl]-3,4-dihydroisoquinolin-1(2H)-one]
< 100 | < 100 | < 100 | COc1cc(OC)c(F)c(-c2cc3[nH]nc(-c4ccc5c(c4)CN([C@H]4CC[C@@H](O)CC4)C5=O)c3cn2)c1F [Example 61, 5-[6-(2,6-Difluoro-3,5-dimethoxyphenyl)-1H-pyrazolo[4,3-c]pyridin-3-yl]-2-(cis-4-hydroxycyclohexyl)isoindolin-1-one]
< 100 | < 100 | < 100 | COc1cc(OC)c(F)c(-c2cc3[nH]nc(-c4ccc5c(c4)CN(C(C)C)C5=O)c3cn2)c1F [Example 53, 5-[6-(2,6-Difluoro-3,5-dimethoxyphenyl)-1H-pyrazolo[4,3-c]pyridin-3-yl]-2-isopropylisoindolin-1-one]
< 100 | < 100 | < 100 | COc1cc(OC)c(Cl)c(-c2ncc3c(-c4ccc5c(c4)CCO5)n[nH]c3n2)c1Cl [Example 86, 6-(2,6-Dichloro-3,5-dimethoxyphenyl)-3-(2,3-dihydro-1-benzofuran-5-yl)-1H-pyrazolo[3,4-d]pyrimidine]
< 100 | < 100 | < 100 | COCCN1Cc2cc(-c3n[nH]c4cc(-c5c(F)c(OC)cc(OC)c5F)ncc34)ccc2C1=O [Example 58, 5-[6-(2,6-Difluoro-3,5-dimethoxyphenyl)-1H-pyrazolo[4,3-c]pyridin-3-yl]-2-(2-methoxyethyl)isoindolin-1-one]

From US9266892B2, “Fused pyrazoles as FGFR inhibitors” (Incyte Corporation, priority 2012, dated 2016)
